In US10268799B2, “Screening methods for thyroid hormone disruptors based on co-regulator involved simulations” (Nanjing University, priority 2016, dated 2019):
Entries after “also recorded” stand apart in the source; their conditions may differ.

Tests used:
GH3 cells = assay: GH3 cell proliferation assay (anti-TH potency); assay type: cell-based, rat; settings: for −log RIC20 (relative anti-TH potency): RIC20 (mol/L) is 20% inhibition of proliferation of GH3 cells induced by 0.5 nM T3; for TH disrupting effect determined in GH3 proliferation assay: result in words
Protocol: The rat pituitary tumor cell line GH3 was cultured for determination of the relative TH disrupting potencies. […] Due to cytotoxicity, the other 3 HO-PBDEs were not tested for anti-TH potencies.

human TRα-LBD = biological target: T1, human TRα-LBD (Homo sapiens, UniProt P10827); assay: Competitive binding assay with Fluorescein-labeled T3 probe, human TRα; settings: result in words (FIG. 2A)
T1 sequence (P10827 163-410 isoform P10827-2): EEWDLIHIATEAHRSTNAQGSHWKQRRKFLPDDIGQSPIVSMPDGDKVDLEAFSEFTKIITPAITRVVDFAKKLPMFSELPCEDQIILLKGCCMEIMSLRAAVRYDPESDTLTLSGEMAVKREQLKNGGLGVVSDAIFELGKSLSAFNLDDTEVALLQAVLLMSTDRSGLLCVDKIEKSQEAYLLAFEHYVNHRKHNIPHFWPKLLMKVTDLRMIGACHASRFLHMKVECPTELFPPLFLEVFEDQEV

| Compound | −log RIC20 (relative anti-TH potency) (GH3 cells) | TH disrupting effect determined in GH3 proliferation assay (GH3 cells) | binding affinity with TRα (human TRα-LBD) |
| --- | --- | --- | --- |
| Oc1c(Oc2ccc(Br)cc2Br)cc(Br)c(Br)c1Br [2-HO-BDE-123] | 7.44 | antagonists of the TR | greater affinities |
| Oc1c(Oc2ccc(Br)cc2Br)ccc(Br)c1Br [2′-OH-BDE-66] | 7.09 | – | – |
| Oc1c(Br)cc(Br)cc1Oc1ccc(Br)cc1Br [2′-OH-BDE-68] | 7.15 | – | – |
| Oc1c(Br)cc(Br)c(Oc2ccc(Br)cc2Br)c1Br [3-HO-BDE-100] | 7.83 | – | greater affinities; also recorded: one of the strongest binding ligands |
| Oc1c(Br)cc(Oc2ccc(Br)cc2Br)c(Br)c1Br [4-HO-BDE-90] | 7.59 | antagonists of the TR | – |
| Oc1c(Br)c(Br)c(Oc2c(Br)cc(Br)cc2Br)c(Br)c1Br [4-HO-BDE-188] | 8.42 | – | – |
| Oc1cc(Br)c(Oc2ccc(Br)cc2Br)cc1Br [4′-HO-BDE-49] | 7.30 | – | too weak to detect |
| Oc1cc(Br)c(Oc2cc(Br)c(Br)cc2Br)cc1Br [4′-HO-BDE-101] | 8.11 | – | – |
| Oc1ccc(Oc2ccc(Br)cc2Br)c(Br)c1 [4′-OH-BDE-17] | 6.51 | – | – |
| Oc1c(Br)cc(Br)c(Br)c1Oc1ccc(Br)cc1Br [6-HO-BDE-90] | 7.76 | – | – |
| Oc1c(Br)c(Br)c(Br)c(Br)c1Oc1ccc(Br)cc1Br [6-HO-BDE-137] | 8.03 | antagonists of the TR | greater affinities |
| Oc1cc(Br)c(Br)c(Br)c1Oc1cc(Br)c(Br)c(Br)c1 [6-HO-BDE-157] | 8.14 | – | – |
| Oc1cccc(Br)c1Oc1ccc(Br)cc1Br [6′-HO-BDE-17] | 6.78 | – | – |
